The values below come from patent publication US20080220056A1, “Treatment for liver disease” (UNIVERSITY OF SOUTHAMPTON, priority 2002, published 2008).

Holding throughout (format): cell-based
Assay [1] relates to rat hepatic stellate cells. As to the kind of experiment: Propidium iodide FACS analysis of DNA strand breaks in rat hepatic stellate cells. The settings on record: 1.5 μmol/L gliotoxin, two hours. As for the experimental part:
Hepatic stellate cells cultured in 35-mm diameter dishes (Greiner) were harvested, pelleted by centrifugation and DNA fragmentation determined as outlined elsewhere (Elsharkawy et al., Hepatology (1999) 30:761-769). Propidium Iodide Flow-Activated Cell Sorting Analysis Detached cells were pelleted by centrifugation, washed in PBS, and resuspended in HYPO buffer (0.1% wt/vol) Na3Citrate and 0.1% (wt/vol) Triton™ X-100 containing […] propidium iodide and incubated for 1 hour. The cells were then analyzed by fluorescence-activated cell sorter (FACS) with a Becton Dickinson (San Jose, Calif.) FACScan instrument using a 488 nm excitation wavelength with a band pass filter set at 530 nm. Attached cells were scraped in HYPO buffer after washing cells with PBS.
To characterize the extent and significance of apoptosis in response to gliotoxin, rat hepatic stellate cell DNA strand breaks were assessed by FACS analysis of propidium iodide stained cells. Culture-activated (14-day) rat hepatic stellate cells were treated with 0.05% (vol/vol) DMSO vehicle control or with 1.5 lμmol/L gliotoxin for two hours, harvested, and stained with propidium iodide as outlined in the materials and methods section.

The test system of assay [2] is rat hepatic stellate cells. Kind of assay: Morphology and detachment of culture-activated rat hepatic stellate cells (light microscopy). The text has this: Rat hepatic stellate cells (HSCs) were isolated by pronase/collagenase perfusion and purified by isopycnic density centrifugation in Opti-prep™ (Nycomed, Amersham, England) and elutriation essentially as previously described (Bahr et al., Hepatology (1999) 29:839-848). Human hepatic stellate cells were isolated from discarded resected liver via a similar protocol (Trim et al., J. Biol. Chem., (2000) 275:6657-6663). The use of human liver tissue for scientific investigation was approved by the UK South and West Local Research Ethics Committee and was subject to patient consent.
It has been shown recently that liver myofibroblasts may contribute to liver fibrogenesis and that liver myofibroblasts may have the potential to contaminate passaged hepatic stellate cell cultures (Knittel et al., Gastronenterology, (1999) 117:1205-1221). In this study, only primary cultures of hepatic stellate cells were used, which were desmin and glial fibrillary acid protein positive (markers shown to be expressed in hepatic stellate cells, but not liver myofibroblasts—Knittel et al., supra).
Cells were treated with gliotoxin dissolved in DMSO vehicle (added to medium from a 2000-fold molar concentrated stock). Control cells received DMSO vehicle only (i.e., 0.05% vol/vol). All other additions to culture medium were made from concentrated stocks dissolved in DMSO or by direct addition to culture medium. Protein contents of wells were determined using the Lowry assay (Lowry et al., J. Biol. Chem., (1951)193: 265-275).
Culture activated rat (14 day) and human (24 day) hepatic stellate cells were treated with DMSO solvent control or 1.5 μMol/L gliotoxin. […] Hepatic stellate cells changed from a flattened fibroblastic phenotype with distinct cell-cell interfaces to a substratum detached, rounded, and blebbed morphology.

Assay [3] has as its system Bcl-2 protein. As to the kind of experiment: Western blotting for Bcl-2 in hepatic stellate cells. The settings on record: cycloheximide 18 hours with TIMP-1 (200 ng/ml and 100 ng/ml both printed) versus cycloheximide alone. How it is done:
Cultured hepatic stellate cells were harvested with a sterile cell scraper, pelleted by centrifugation, and then resuspended in 500 μl of TE buffer (10 mmol/Tris-HCl, 1 mmol/liter EDTA, pH 8.0) before sonication for 15 min. 100 μl of PicoGreen (Molecular Probes, Inc., Eugene, Oreg.) at 1:200 dilution was added to 100 μl of sample and incubated in the dark at room temperature for 5 min. Standards were made from herring sperm DNA. Fluorescence was measured using a Cytofluor II Microwell Fluorescence reader (Perceptive Biosystems, Framingham, Mass.) at standard wavelengths (excitation 485 nm, emission 530 nm). Concentrations of double-stranded DNA in the samples were calculated from the standard curve. […]
The protein Bcl-2 regulates the properties of cells to undergo apoptosis by interpolating into the mitochondria membrane (Hengartner, supra). […] To define changes in the protein level of Bcl-2, extracts from hepatic stellate cells treated with cycloheximide for 18 hours, either in the presence and absence of 200 ng/ml TIMP-1, were analyzed by western blotting. Equal quantities (determined by protein concentration) of protein extracts from hepatic stellate cells exposed to: serum alone; cycloheximide alone; or cycloheximide with TIMP-1 protein (100 ng/ml) were assessed by blotting.

As to `CN1C(=O)[C@]23CC4=CC=C[C@H](O)[C@H]4N2C(=O)[C@@]1(CO)SS3` [gliotoxin], the “propidium iodide nuclei fluorescence (DNA cleavage)” value in assay [1] is listed as “broad low level of fluorescence”. Further, the “detachment from culture dish substratum” value in assay [2] (1.5 μMol/L gliotoxin, within four hours) was “a majority of the hepatic stellate cells had detached”. Moreover, the morphologic alterations entry in assay [2] (culture activated (14 day) rat HSC, 1.5 μmol/L) was “striking morphologic alterations within one hour”.
Take “TIMP-1: recombinant tissue inhibitor of matrix metalloproteases 1 (Biogenesis)”: in assay [3], the Bcl-2 protein expression entry is recorded as “enhanced levels of Bcl-2 protein expression”.
